SMILES strings stand for the structures.

As a reminder, the DC50 is the concentration at which degradation of the target reaches its halfway point.

The assay addresses T1, HMG-CoA reductase (Homo sapiens, UniProt P04035).
T1 construct: endogenous in cells; host or cells: HepG2 (Korea Cell Line Bank)
T1 sequence (P04035 1-888): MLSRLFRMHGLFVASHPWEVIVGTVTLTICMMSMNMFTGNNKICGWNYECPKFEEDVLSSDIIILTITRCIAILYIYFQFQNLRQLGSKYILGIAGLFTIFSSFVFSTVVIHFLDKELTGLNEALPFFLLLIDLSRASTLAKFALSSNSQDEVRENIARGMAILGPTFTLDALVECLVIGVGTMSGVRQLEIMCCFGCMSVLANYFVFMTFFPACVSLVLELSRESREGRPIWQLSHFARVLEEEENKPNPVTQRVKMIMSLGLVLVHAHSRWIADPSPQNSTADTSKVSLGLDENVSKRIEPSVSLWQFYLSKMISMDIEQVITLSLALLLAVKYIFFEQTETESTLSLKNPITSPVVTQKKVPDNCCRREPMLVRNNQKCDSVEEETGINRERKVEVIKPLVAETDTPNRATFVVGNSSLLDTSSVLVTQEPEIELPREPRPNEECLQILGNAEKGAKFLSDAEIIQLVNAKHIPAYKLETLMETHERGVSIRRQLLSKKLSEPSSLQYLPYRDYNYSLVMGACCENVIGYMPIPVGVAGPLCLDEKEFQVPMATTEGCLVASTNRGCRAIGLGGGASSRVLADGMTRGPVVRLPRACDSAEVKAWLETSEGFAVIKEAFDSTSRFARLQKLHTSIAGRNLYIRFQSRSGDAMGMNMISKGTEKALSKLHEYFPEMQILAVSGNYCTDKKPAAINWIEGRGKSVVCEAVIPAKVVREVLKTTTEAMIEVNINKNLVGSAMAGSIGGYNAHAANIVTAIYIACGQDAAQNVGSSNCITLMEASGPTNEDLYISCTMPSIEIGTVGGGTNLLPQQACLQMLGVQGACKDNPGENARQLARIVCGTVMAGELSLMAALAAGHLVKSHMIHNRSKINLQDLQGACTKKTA
Kind of assay: HMG-CoA reductase (HMGCR) degradation in HepG2 cells by western blotting. The format is cell-based. The conditions noted are these: treated for 18 hours, ratio of HMG-CoA reductase to GAPDH, read-out: DC50. Put shortly: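 HepG2 cells (passage P105–P110) treated 18 hours with compounds in 10-point three-fold dilutions from 3 μM. RIPA lysates (15 μg protein, BCA-quantified) run on SDS-PAGE and immunoblotted for HMGCR (1:500) with GAPDH (1:20000) as loading control, primary antibodies 16 hours at 4° C.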
In general terms: Immunoblotting shows a protein as a band on a membrane.
As to `CN[C@@H](C)C(=O)N[C@H](C(=O)N1CCC[C@@H]1c1nc(C(=O)c2cccc(OCCOCCOCCNC(=O)O[C@H]3C[C@@H](C)C=C4C=C[C@H](C)[C@H](CC[C@@H]5C[C@@H](O)CC(=O)O5)[C@H]43)c2)cs1)C1CCCCC1` [Compound 34, (1S,3R,7S,8S,8aR)-8-(2-((2R,4R)-4-hydroxy-6-oxotetrahydro-2H-pyran-2-yl)ethyl)-3,7-dimethyl-1,2,3,7,8,8a-hexahydronaphthalen-1-yl (2-(2-(2-(3-(2-((R)-1-((S)-2-cyclohexyl-2-((S)-2-(methylamino)propanamido)acetyl)pyrrolidin-2-yl)thiazole-4-carbonyl)phenoxy)ethoxy)ethoxy)ethyl)carbamate], the DC50 is greater than 0.5 µM.

Consider `CN[C@@H](C)C(=O)N[C@H](C(=O)N1CCC[C@@H]1c1nc(C(=O)c2cccc(OCCOCCOCCNC(=O)O[C@H]3C[C@@H](C)C=C4C=C[C@H](C)[C@H](CC[C@@H]5C[C@@H](O[Si](C)(C)C(C)(C)C)CC(=O)O5)[C@H]43)c2)cs1)C1CCCCC1` [Compound 35, (1S,3R,7S,8S,8aR)-8-(2-((2R,4R)-4-((tert-butyldimethylsilyl)oxy)-6-oxotetrahydro-2H-pyran-2-yl)ethyl)-3,7-dimethyl-1,2,3,7,8,8a-hexahydronaphthalen-1-yl (2-(2-(2-(3-(2-((R)-1-((S)-2-cyclohexyl-2-((S)-2-(methylamino)propanamido)acetyl)pyrrolidin-2-yl)thiazole-4-carbonyl)phenoxy)ethoxy)ethoxy)ethyl)carbamate], for which the DC50 was greater than 0.5 µM.

`CN[C@@H](C)C(=O)N[C@H](C(=O)N1CCC[C@H]1c1nc(C(=O)c2cccc(OCCOCCOCCNC(=O)O[C@H]3C[C@@H](C)C=C4C=C[C@H](C)[C@H](CC[C@@H]5C[C@@H](O[Si](C)(C)C(C)(C)C)CC(=O)O5)[C@H]43)c2)cs1)C1CCCCC1` [Compound 36, (1S,3R,7S,8S,8aR)-8-(2-((2R,4R)-4-((tert-butyldimethylsilyl)oxy)-6-oxotetrahydro-2H-pyran-2-yl)ethyl)-3,7-dimethyl-1,2,3,7,8,8a-hexahydronaphthalen-1-yl (2-(2-(2-(3-(2-((S)-1-((S)-2-cyclohexyl-2-((S)-2-(methylamino)propanamido)acetyl)pyrrolidin-2-yl)thiazole-4-carbonyl)phenoxy)ethoxy)ethoxy)ethyl)carbamate]: the DC50 was less than 0.05 µM.

Take `CN[C@@H](C)C(=O)N[C@H](C(=O)N1CCC[C@H]1c1nc(C(=O)c2cccc(OCCOCCOCCOCCNC(=O)O[C@H]3C[C@@H](C)C=C4C=C[C@H](C)[C@H](CC[C@@H]5C[C@@H](O[Si](C)(C)C(C)(C)C)CC(=O)O5)[C@H]43)c2)cs1)C1CCCCC1` [Compound 37, (1S,3R,7S,8S,8aR)-8-(2-((2R,4R)-4-((tert-butyldimethylsilyl)oxy)-6-oxotetrahydro-2H-pyran-2-yl)ethyl)-3,7-dimethyl-1,2,3,7,8,8a-hexahydronaphthalen-1-yl (2-(2-(2-(2-(3-(2-((S)-1-((S)-2-cyclohexyl-2-((S)-2-(methylamino)propanamido)acetyl)pyrrolidin-2-yl)thiazole-4-carbonyl)phenoxy)ethoxy)ethoxy)ethoxy)ethyl)carbamate]: the DC50 is less than 0.05 µM.

On to `CN[C@@H](C)C(=O)N[C@H](C(=O)N1CCC[C@H]1c1nc(C(=O)c2cccc(OCCOCCOCCOCCOCCNC(=O)O[C@H]3C[C@@H](C)C=C4C=C[C@H](C)[C@H](CC[C@@H]5C[C@@H](O[Si](C)(C)C(C)(C)C)CC(=O)O5)[C@H]43)c2)cs1)C1CCCCC1` [Compound 38, (1S,3R,7S,8S,8aR)-8-(2-((2R,4R)-4-((tert-butyldimethylsilyl)oxy)-6-oxotetrahydro-2H-pyran-2-yl)ethyl)-3,7-dimethyl-1,2,3,7,8,8a-hexahydronaphthalen-1-yl (14-(3-(2-((S)-1-((S)-2-cyclohexyl-2-((S)-2-(methylamino)propanamido)acetyl)pyrrolidin-2-yl)thiazole-4-carbonyl)phenoxy)-3,6,9,12-tetraoxatetradecyl)carbamate], for which the DC50 was less than 0.05 µM.

As to `C[C@H]1C=C2C=C[C@H](C)[C@H](CC[C@@H]3C[C@@H](O)CC(=O)O3)[C@H]2[C@@H](OC(=O)NCCOCCOCCOCCNc2ccccc2)C1` [Compound 39, (1S,3R,7S,8S,8aR)-8-(2-((2R,4R)-4-hydroxy-6-oxotetrahydro-2H-pyran-2-yl)ethyl)-3,7-dimethyl-1,2,3,7,8,8a-hexahydronaphthalen-1-yl (2-(2-(2-(2-(phenylamino)ethoxy)ethoxy)ethoxy)ethyl)carbamate], the DC50 is greater than 0.5 µM.

For the molecule `C[C@H]1C=C2C=C[C@H](C)[C@H](CC[C@@H]3C[C@@H](O)CC(=O)O3)[C@H]2[C@@H](OC(=O)NCCOCCOCCNc2cccc3c2C(=O)N(C2CCC(=O)NC2=O)C3=O)C1` (stereo partly drawn) [Compound 40, (1S,3R,7S,8S,8aR)-8-(2-((2R,4R)-4-hydroxy-6-oxotetrahydro-2H-pyran-2-yl)ethyl)-3,7-dimethyl-1,2,3,7,8,8a-hexahydronaphthalen-1-yl (2-(2-(2-((2-(2,6-dioxopiperidin-3-yl)-1,3-dioxoisoindolin-4-yl)amino)ethoxy)ethoxy)ethyl)carbamate], the DC50 is less than 0.05 µM.

As to `C[C@H]1C=C2C=C[C@H](C)[C@H](CC[C@@H]3C[C@@H](O)CC(=O)O3)[C@H]2[C@@H](OC(=O)NCCOCCOCCOCCNc2cccc3c2C(=O)N(C2CCC(=O)NC2=O)C3=O)C1` (stereo partly drawn) [Compound 41, (1S,3R,7S,8S,8aR)-8-(2-((2R,4R)-4-hydroxy-6-oxotetrahydro-2H-pyran-2-yl)ethyl)-3,7-dimethyl-1,2,3,7,8,8a-hexahydronaphthalen-1-yl (2-(2-(2-(2-((2-(2,6-dioxopiperidin-3-yl)-1,3-dioxoisoindolin-4-yl)amino)ethoxy)ethoxy)ethoxy)ethyl)carbamate], the DC50 was less than 0.05 µM.

Consider `C[C@H]1C=C2C=C[C@H](C)[C@H](CC[C@@H]3C[C@@H](O)CC(=O)O3)[C@H]2[C@@H](OC(=O)NCCOCCOCCOCCOCCNc2cccc3c2C(=O)N(C2CCC(=O)NC2=O)C3=O)C1` (stereo partly drawn) [Compound 42, (1S,3R,7S,8S,8aR)-8-(2-((2R,4R)-4-hydroxy-6-oxotetrahydro-2H-pyran-2-yl)ethyl)-3,7-dimethyl-1,2,3,7,8,8a-hexahydronaphthalen-1-yl (14-((2-(2,6-dioxopiperidin-3-yl)-1,3-dioxoisoindolin-4-yl)amino)-3,6,9,12-tetraoxatetradecyl)carbamate], for which the DC50 is less than 0.05 µM.

Take `C[C@H]1C=C2C=C[C@H](C)[C@H](CC[C@@H]3C[C@@H](O)CC(=O)O3)[C@H]2[C@@H](OC(=O)NCCOCCOCCOCCOCCOCCNc2cccc3c2C(=O)N(C2CCC(=O)NC2=O)C3=O)C1` (stereo partly drawn) [Compound 43, (1S,3R,7S,8S,8aR)-8-(2-((2R,4R)-4-hydroxy-6-oxotetrahydro-2H-pyran-2-yl)ethyl)-3,7-dimethyl-1,2,3,7,8,8a-hexahydronaphthalen-1-yl (17-((2-(2,6-dioxopiperidin-3-yl)-1,3-dioxoisoindolin-4-yl)amino)-3,6,9,12,15-pentaoxaheptadecyl)carbamate]: the DC50 is less than 0.05 µM.

On to `C[C@H]1C=C2C=C[C@H](C)[C@H](CC[C@@H]3C[C@@H](O)CC(=O)O3)[C@H]2[C@@H](OC(=O)NCCOCCOCCOCCOCCOCCOCCNc2cccc3c2C(=O)N(C2CCC(=O)NC2=O)C3=O)C1` (stereo partly drawn) [Compound 44, (1S,3R,7S,8S,8aR)-8-(2-((2R,4R)-4-hydroxy-6-oxotetrahydro-2H-pyran-2-yl)ethyl)-3,7-dimethyl-1,2,3,7,8,8a-hexahydronaphthalen-1-yl (20-((2-(2,6-dioxopiperidin-3-yl)-1,3-dioxoisoindolin-4-yl)amino)-3,6,9,12,15,18-hexaoxaicosyl)carbamate], for which the DC50 is less than 0.05 µM.

`C[C@H]1C=C2C=C[C@H](C)[C@H](CC[C@@H]3C[C@@H](O[Si](C)(C)C(C)(C)C)CC(=O)O3)[C@H]2[C@@H](OC(=O)NCCOCCOCCOCCNc2ccccc2)C1` [Compound 45, (1S,3R,7S,8S,8aR)-8-(2-((2R,4R)-4-((tert-butyldimethylsilyl)oxy)-6-oxotetrahydro-2H-pyran-2-yl)ethyl)-3,7-dimethyl-1,2,3,7,8,8a-hexahydronaphthalen-1-yl (2-(2-(2-(2-(phenylamino)ethoxy)ethoxy)ethoxy)ethyl)carbamate]: the DC50 is greater than 0.5 µM.

The record behind these values is US12479840B2, “HMG-CoA reductase degradation inducing compound” (Uppthera, priority 2020, dated 2025).
